{"source": "patent US20200038399A1", "about": "“FORMULATIONS, METHODS, KIT, AND DOSAGE FORMS FOR TREATING BACTERIAL INFECTION” (Motif BioSciences Inc., priority 2016, published 2020)", "key": {"[1]": {"conditions": "in vivo; cited from earlier work"}, "[2]": {"tested_on": "Pneumocystis jirovecii", "experiment": "in vivo Pneumocystis pneumonia model, corticosteroid-treated rats", "conditions": "once a day for 10 days; for Mean % + SD (inhibition of cysts, TBO) / Mean % + SD (inhibition of total parasites, Giemsa): group mean; for Total cysts (TBO) / Total parasites (Giemsa): rat lung; for Total cysts (TBO) / Total parasites (Giemsa) / % of inhibition vs Control (total parasites, Giemsa) / % of inhibition vs control (cysts, TBO): single rat", "protocol": "Compound solutions were prepared just before use.\nThe drugs were given once a day for 10 consecutive days. The final concentration of DMSO in diluted drug solutions was between 1.5 and 15%. Control animals were dosed with sterile water with 15% of DMSO. At the end of the experiment, therapeutic efficacy was assessed by counting P. jirovecii in lung homogenates and comparing the counts with those of the untreated controls. Twenty-four hours after the end of the treatment, animals were sacrificed and the lung homogenized in a Stomacher-400 blender as previously described (European Concerted Action on Pneumocystis Research. Parasitology Today 12: 245-9, 1996, the entire disclosure of which is herein incorporated by reference). Parasite quantitation was performed on air-dried smears stained with toluidine blue 0 (cystic forms) or RAL-555 stains (vegetative, precystic and cystic forms)."}, "[3]": {"tested_on": "S. aureus 101", "experiment": "MIC determination", "format": "cell-based, Staphylococcus aureus", "conditions": "Staphylococcus aureus, 101, 18 h; read-out: Minimum inhibitory concentrations (MIC)", "procedure,_shortened": "(§1)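 K. pneumoniae and S. aureus grew in cation-adjusted Mueller-Hinton broth in ambient air. H. influenzae used Haemophilus test medium (MHB, yeast extract, NAD, hematin) and M. catarrhalis used Brain Heart Infusion, both under 5% CO2.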"}, "[4]": {"tested_on": "Staphylococcus aureus AH 1246", "experiment": "mouse subcutaneous abscess model", "format": "in vivo", "conditions": "mice; 40 mg/Kg (alone); PO @ 8, 24, 32, 48, 56 hours post infection", "description": "Wild type S. aureus ATCC 25923 and its TK-deficient mutant AH 1246 were supplied by Arpida AG, Reinach, Switzerland.\nS. aureus strains were grown on TSA plates at 37° C. in 5% CO2. The bacteria concentration was adjusted by re-suspending a portion of the overnight growth of the plate in saline and adjusting a 1:10 dilution of the suspension to achieve an OD625 of 0.1. The adjusted suspension was diluted 1:2 in prepared Cytodex beads (1 gram/50 mL PBS) to a final concentration of 5.0×10^5 CFU/mL. Bacterial enumeration was performed to determine actual concentration of the bacterial inoculum.\nCD-1 female mice (weighing 18 to 22 grams) from Charles River Laboratories (Wilmington, Mass.) were acclimated for 5 days prior to start of study. All studies were performed under approved IACUC protocols and conform to OLAW standards. Animals had free access to food and water throughout the study. Animals were provided enrichment and housed 5 per cage.\nMice were injected SC with 0.2 mL of the bacterial-Cytodex inoculum. […] The mice were then euthanized and the abscesses aseptically removed, homogenized, serially diluted and plated for bacterial enumeration."}, "[5]": {"tested_on": "Pneumocystis jirovecii", "experiment": "in vitro anti-Pneumocystis susceptibility, broth microdilution in axenic culture", "conditions": "4 days", "description": "Iclaprim was synthesized at Arpida Ltd. (Münchenstein, Switzerland). TMP and SMX were obtained from Sigma, Spain. […] TMP and SMX solutions were mixed appropriately to obtain a final 1:5-combination. For evaluating the in vitro anti-Pneumocystis activity, the drug stock solutions were diluted in Dulbecco's Modified Eagle's Medium (DMEM, Bio-Whittaker) supplemented with 10% heat-inactivated fetal calf serum (FCS, GIBCO-BRL) to produce the required drug concentrations. […] Compound solutions were prepared just before use.\nCorticosteroid-treated conventional laboratory rats were used as an animal model to obtain P. jirovecii organisms. Ten-week-old female Wistar rats (Harlan, France) were immunosuppressed for 3 weeks with dexamethasone (Fortecortin®, Merck) administered in the drinking water (2 mg/liter). Rats were then inoculated with 20×10^6 of cryopreserved parasites using a non-surgical endotracheal method. Dexamethasone treatment was maintained until the end of the experiment. Six to eight weeks' post-inoculation (p.i.) rats were highly infected, without secondary fungal or bacterial infection. Animals were allowed sterile standard food (UAR, France) and water ad libitum.\nSix to eight weeks following inoculation, rats were sacrificed and parasite extraction was performed. Briefly, parasites were extracted in Dulbecco's Modified Eagle's Medium (DMEM; Bio-Whittaker) by agitation of lung pieces with a magnetic stirrer. The resulting homogenate was poured successively through gauze, 250 and 63 micron stainless steels filters. After centrifugation, the pellet was resuspended in a hemolytic buffered solution. […] Blood and Sabouraud dextrose agar (Difco) media were inoculated with purified parasites to check for the presence of eventual contaminating pathogens.\nIn vitro pharmacodynamic properties were determined using the Hill equation (Emax sigmoid model; see below).\nIn vitro susceptibility studies were performed using the broth microdilution technique. […] All the experiments were carried out in 24-well plates with a final volume of 2 ml of DMEM supplemented with 10% FCS containing a final inoculum of 0.5×10^6 organisms per ml. Plates were then incubated for 4 days in an atmosphere of 5% C0^2 at 37° C. One free-drug control was included in each assay. Parasite quantitation was performed on homogenate smears as described above. All susceptibility assays were set up in triplicate.\nAnalysis of results. […] Once all the differences between drug-treated and untreated wells were calculated, the concentration-effect relationship was established by using the Hill equation:\nThe parameters of this pharmacodynamic model were calculated by nonlinear least-squares regression techniques using a commercial software (Sigma Plot)."}, "[6]": {"tested_on": "S. pneumoniae 1/1", "experiment": "MIC determination", "format": "cell-based, Streptococcus pneumoniae", "conditions": "Streptococcus pneumoniae; S. pneumoniae 1/1; 18 hours at 37° C., 5% CO2; read-out: Minimum inhibitory concentrations (MIC)"}, "[7]": {"tested_on": "Staphylococcus aureus ATCC 25923", "experiment": "MIC determination", "format": "cell-based", "conditions": "Staphylococcus aureus, ATCC25923; S. aureus 25923; 18 hours at 37° C.; read-out: Minimum inhibitory concentrations (MIC)", "procedure,_shortened": "as §1"}, "[8]": {"tested_on": "Klebsiella pneumoniae ATCC 33495", "experiment": "MIC determination", "format": "cell-based", "conditions": "Klebsiella pneumoniae, ATCC33495; K. pneumonia 33495; 18 hours at 37° C.; read-out: Minimum inhibitory concentrations (MIC)", "procedure,_shortened": "as §1"}, "[9]": {"tested_on": "Moraxella catarrhalis RA 21", "experiment": "MIC determination", "format": "cell-based", "conditions": "Moraxella catarrhalis, RA21; M. catarrhalis RA 21; 18 hours at 37° C., 5% CO2; read-out: Minimum inhibitory concentrations (MIC)", "procedure,_shortened": "as §1"}, "[10]": {"tested_on": "Haemophilus influenzae ATCC 49766", "experiment": "MIC determination", "format": "cell-based", "conditions": "Haemophilus influenzae, ATCC49766; H. Influenza 49766; 18 hours at 37° C., 5% CO2; read-out: Minimum inhibitory concentrations (MIC)", "procedure,_shortened": "as §1"}, "[11]": {"tested_on": "Streptococcus pneumoniae ATCC 49619", "experiment": "MIC determination", "format": "cell-based", "conditions": "Streptococcus pneumoniae, ATCC49619; S. pneumoniae 49619; 18 hours at 37° C., 5% CO2; read-out: Minimum inhibitory concentrations (MIC)"}, "[12]": {"biological_target": "hERG channel (Homo sapiens, UniProt Q12809)", "sequence (Q12809 whole entry)": "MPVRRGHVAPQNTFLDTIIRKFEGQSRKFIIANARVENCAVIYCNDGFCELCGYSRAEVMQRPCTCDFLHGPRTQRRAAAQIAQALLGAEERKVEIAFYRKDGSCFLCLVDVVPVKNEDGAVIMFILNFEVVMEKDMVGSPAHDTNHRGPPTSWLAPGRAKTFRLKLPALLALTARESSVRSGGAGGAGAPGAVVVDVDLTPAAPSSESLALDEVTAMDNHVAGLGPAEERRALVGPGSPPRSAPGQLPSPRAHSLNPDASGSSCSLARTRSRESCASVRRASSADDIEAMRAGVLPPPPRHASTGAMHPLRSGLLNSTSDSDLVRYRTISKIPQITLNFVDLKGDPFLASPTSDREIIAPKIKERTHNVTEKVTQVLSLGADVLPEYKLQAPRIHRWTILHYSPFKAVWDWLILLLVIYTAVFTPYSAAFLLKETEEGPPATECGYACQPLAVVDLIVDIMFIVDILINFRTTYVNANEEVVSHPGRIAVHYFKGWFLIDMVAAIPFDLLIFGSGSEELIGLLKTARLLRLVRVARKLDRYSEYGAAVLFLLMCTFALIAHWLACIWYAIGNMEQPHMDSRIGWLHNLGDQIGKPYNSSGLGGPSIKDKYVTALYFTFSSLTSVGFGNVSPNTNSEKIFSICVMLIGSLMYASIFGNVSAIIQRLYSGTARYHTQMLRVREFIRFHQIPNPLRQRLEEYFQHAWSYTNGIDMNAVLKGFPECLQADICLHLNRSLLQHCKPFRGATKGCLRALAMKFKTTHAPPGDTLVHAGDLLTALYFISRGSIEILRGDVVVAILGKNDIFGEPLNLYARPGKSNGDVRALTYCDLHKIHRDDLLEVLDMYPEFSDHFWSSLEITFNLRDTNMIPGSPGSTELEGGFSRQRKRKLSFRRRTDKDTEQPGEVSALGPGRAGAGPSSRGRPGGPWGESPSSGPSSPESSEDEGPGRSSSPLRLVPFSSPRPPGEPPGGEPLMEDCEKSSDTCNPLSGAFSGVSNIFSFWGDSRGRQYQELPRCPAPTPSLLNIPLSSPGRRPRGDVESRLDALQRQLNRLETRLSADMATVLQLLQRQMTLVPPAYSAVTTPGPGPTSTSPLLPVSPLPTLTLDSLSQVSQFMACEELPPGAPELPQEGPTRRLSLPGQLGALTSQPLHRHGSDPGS", "conditions": "cited from earlier work"}, "[13]": {"tested_on": "Gram-positive bacteria", "conditions": "cited from earlier work"}, "[14]": {"conditions": "in vivo; cited from earlier work", "remark": "listed apart in the source"}, "[15]": {"conditions": "5 mg/kg/d oral, listed as AR-100, 5 mg/kg/day"}, "[16]": {"conditions": "25 mg/kg/d oral, listed as AR-100, 25 mg/kg/day"}, "[17]": {"conditions": "50 mg/kg/d oral, listed as AR-100, 50 mg/kg/day"}}, "note": "Values joined by “and” are separate entries in the source; they are usually repeats but may differ in a detail not shown here. Identical values can stand only once.", "data": [{"compound": "COc1cc(Cc2cnc(N)nc2N)c2c(c1OC)OC(C1CC1)C=C2", "note": "(racemic) [Iclaprim, 5-[(2RS)-2-cyclopropyl-7,8-dimethoxy-2Hchromen-5-ylmethyl] pyrimidine-2,4-diamine]", "values": [{"measurement": "t½ (plasma half-life)", "setting": "[1]", "value": "about 2.9 hours"}, {"measurement": "Mean % + SD (inhibition of cysts, TBO)", "setting": "[2]; 5 mg/kg/d oral", "value": "69.4 ± 8.4", "unit": "%"}, {"measurement": "Mean % + SD (inhibition of total parasites, Giemsa)", "setting": "[2]; 5 mg/kg/d oral", "value": "66.9 ± 7.8", "unit": "%"}, {"measurement": "Mean % + SD (inhibition of cysts, TBO)", "setting": "[2]; 25 mg/kg/d oral", "value": "72.0 ± 30.0", "unit": "%"}, {"measurement": "Mean % + SD (inhibition of total parasites, Giemsa)", "setting": "[2]; 25 mg/kg/d oral", "value": "79.1 ± 20.9", "unit": "%"}, {"measurement": "Mean % + SD (inhibition of cysts, TBO)", "setting": "[2]; 50 mg/kg/d oral", "value": "71.7 ± 14.5", "unit": "%"}, {"measurement": "Mean % + SD (inhibition of total parasites, Giemsa)", "setting": "[2]; 50 mg/kg/d oral", "value": "76.5 ± 13.3", "unit": "%"}, {"measurement": "Total cysts (TBO)", "setting": "[2]; [15]", "value": "3.85.10^+7 and 2.60.10^+7 and 4.61.10^+7"}, {"measurement": "Total parasites (Giemsa)", "setting": "[2]; [15]", "value": "9.13.10^+8 and 6.56.10^+8"}, {"measurement": "Total cysts (TBO)", "setting": "[2]; [16]", "value": "1.72.10^+7 and 8.94.10^+6 and 9.11.10^+7"}, {"measurement": "Total parasites (Giemsa)", "setting": "[2]; [16]", "value": "3.94.10^+8 and 3.41.10^+7 and 9.38.10^+8"}, {"measurement": "Total cysts (TBO)", "setting": "[2]; [17]", "value": "5.17.10^+7 and 3.38.10^+7 and 5.23.10^+7"}, {"measurement": "Total parasites (Giemsa)", "setting": "[2]; [17]", "value": "5.68.10^+8 and 7.71.10^+8 and 2.00.10^+8"}, {"measurement": "% of inhibition vs Control (total parasites, Giemsa)", "setting": "[2]; [15]", "value": "58.1% and 69.9% and 72.8%"}, {"measurement": "% of inhibition vs control (cysts, TBO)", "setting": "[2]; [15]", "value": "68.0% and 78.4% and 61.7%"}, {"measurement": "% of inhibition vs Control (total parasites, Giemsa)", "setting": "[2]; [16]", "value": "81.9% and 98.4% and 90.8%"}, {"measurement": "% of inhibition vs control (cysts, TBO)", "setting": "[2]; [16]", "value": "85.7% and 92.6% and 37.7%"}, {"measurement": "% of inhibition vs Control (total parasites, Giemsa)", "setting": "[2]; [17]", "value": "74.0% and 64.7% and 90.8%"}, {"measurement": "% of inhibition vs control (cysts, TBO)", "setting": "[2]; [17]", "value": "57.1% and 71.9% and 86.1%"}, {"measurement": "MIC", "setting": "[3]", "value": 1, "unit": "µg/mL"}, {"measurement": "Change in average log10 CFU/gr of Abscess from Controls", "setting": "[4]", "value": "−0.79", "unit": "log10 CFU/gr"}, {"measurement": "% inhibition vs control", "setting": "[5]; Iclaprim 5 μg/ml", "value": "5.8 ± 2.6", "unit": "%"}, {"measurement": "Log (total parasites)", "setting": "[5]; Iclaprim 5 μg/ml", "value": 6.2}, {"measurement": "Total parasites (× 10^6)", "setting": "[5]; Iclaprim 5 μg/ml", "value": "1.5 ± 0.04 × 10^6"}, {"measurement": "% inhibition vs control", "setting": "[5]; Iclaprim 11 μg/ml", "value": "19.3 ± 7.4", "unit": "%"}, {"measurement": "Log (total parasites)", "setting": "[5]; Iclaprim 11 μg/ml", "value": 6.1}, {"measurement": "Total parasites (× 10^6)", "setting": "[5]; Iclaprim 11 μg/ml", "value": "1.3 ± 0.1 × 10^6"}, {"measurement": "% inhibition vs control", "setting": "[5]; Iclaprim 18 μg/ml", "value": "44.0 ± 6.3", "unit": "%"}, {"measurement": "Log (total parasites)", "setting": "[5]; Iclaprim 18 μg/ml", "value": 5.9}, {"measurement": "Total parasites (× 10^6)", "setting": "[5]; Iclaprim 18 μg/ml", "value": "0.9 ± 0.1 × 10^6"}, {"measurement": "% inhibition vs control", "setting": "[5]; Iclaprim 24 μg/ml", "value": "58.1 ± 3.1", "unit": "%"}, {"measurement": "Log (total parasites)", "setting": "[5]; Iclaprim 24 μg/ml", "value": 5.8}, {"measurement": "Total parasites (× 10^6)", "setting": "[5]; Iclaprim 24 μg/ml", "value": "0.7 ± 0.05 × 10^6"}, {"measurement": "% inhibition vs control", "setting": "[5]; Iclaprim 31 μg/ml", "value": "79.3 ± 4.8", "unit": "%"}, {"measurement": "Log (total parasites)", "setting": "[5]; Iclaprim 31 μg/ml", "value": 5.5}, {"measurement": "Total parasites (× 10^6)", "setting": "[5]; Iclaprim 31 μg/ml", "value": "0.3 ± 0.08 × 10^6"}, {"measurement": "% inhibition vs control", "setting": "[5]; Iclaprim 37 μg/ml", "value": "92.3 ± 1.9", "unit": "%"}, {"measurement": "Log (total parasites)", "setting": "[5]; Iclaprim 37 μg/ml", "value": 5.1}, {"measurement": "Total parasites (× 10^6)", "setting": "[5]; Iclaprim 37 μg/ml", "value": "0.1 ± 0.03 × 10^6"}, {"measurement": "% inhibition vs control", "setting": "[5]; Iclaprim 44 μg/ml", "value": "98.3 ± 0.72", "unit": "%"}, {"measurement": "Log (total parasites)", "setting": "[5]; Iclaprim 44 μg/ml", "value": 4.4}, {"measurement": "Total parasites (× 10^6)", "setting": "[5]; Iclaprim 44 μg/ml", "value": "0.03 ± 0.01 × 10^6"}, {"measurement": "% inhibition vs control", "setting": "[5]; Iclaprim 50 μg/ml", "value": "99.7 ± 0.04", "unit": "%"}, {"measurement": "Log (total parasites)", "setting": "[5]; Iclaprim 50 μg/ml", "value": 3.7}, {"measurement": "Total parasites (× 10^6)", "setting": "[5]; Iclaprim 50 μg/ml", "value": "0.01 ± 0.001 × 10^6"}, {"measurement": "% inhibition vs control", "setting": "[5]; Iclaprim 80 μg/ml", "value": "99.8 ± 0.12", "unit": "%"}, {"measurement": "Log (total parasites)", "setting": "[5]; Iclaprim 80 μg/ml", "value": 3.4}, {"measurement": "Total parasites (× 10^6)", "setting": "[5]; Iclaprim 80 μg/ml", "value": "0.003 ± 0.002 × 10^6"}, {"measurement": "% inhibition vs control", "setting": "[5]; Iclaprim 100 μg/ml", "value": "99.9 ± 0.07", "unit": "%"}, {"measurement": "Log (total parasites)", "setting": "[5]; Iclaprim 100 μg/ml", "value": 3.3}, {"measurement": "Total parasites (× 10^6)", "setting": "[5]; Iclaprim 100 μg/ml", "value": "0.002 ± 0.001 × 10^6"}, {"measurement": "MIC", "setting": "[6]", "value": 1, "unit": "µg/mL"}, {"measurement": "MIC", "setting": "[7]", "value": 0.063, "unit": "µg/mL"}, {"measurement": "MIC", "setting": "[8]", "value": 8, "unit": "µg/mL"}, {"measurement": "MIC", "setting": "[9]", "value": 2, "unit": "µg/mL"}, {"measurement": "MIC", "setting": "[10]", "value": 0.25, "unit": "µg/mL"}, {"measurement": "MIC", "setting": "[11]", "value": 0.125, "unit": "µg/mL"}]}, {"compound": "COc1cc(Cc2cnc(N)nc2N)c2c(c1OC)O[C@H](C1CC1)C=C2", "note": "[R-enantiomer, 5-[(2R)-2-cyclopropyl-7,8-dimethoxy-2Hchromen-5-ylmethyl] pyrimidine-2,4-diamine]", "values": [{"measurement": "hERG channel activity compared with the S-enantiomer", "setting": "[12]", "value": "reduced hERG channel activity"}, {"measurement": "minimum inhibitory concentration (MIC) compared with the S-enantiomer", "setting": "[13]", "value": "lower minimum inhibitory concentration (MIC) than the S-enantiomer"}, {"measurement": "pharmacokinetic parameters compared with the S-enantiomer", "setting": "[14]", "value": "more favorable pharmacokinetic parameters"}]}]}
